One experiment deals with T1, alpha1 adrenoceptors (Rattus norvegicus, UniProt P15823).
T1 construct: from tissue; host or cells: rat cardiac membranes
T1 sequence (P15823 1-515): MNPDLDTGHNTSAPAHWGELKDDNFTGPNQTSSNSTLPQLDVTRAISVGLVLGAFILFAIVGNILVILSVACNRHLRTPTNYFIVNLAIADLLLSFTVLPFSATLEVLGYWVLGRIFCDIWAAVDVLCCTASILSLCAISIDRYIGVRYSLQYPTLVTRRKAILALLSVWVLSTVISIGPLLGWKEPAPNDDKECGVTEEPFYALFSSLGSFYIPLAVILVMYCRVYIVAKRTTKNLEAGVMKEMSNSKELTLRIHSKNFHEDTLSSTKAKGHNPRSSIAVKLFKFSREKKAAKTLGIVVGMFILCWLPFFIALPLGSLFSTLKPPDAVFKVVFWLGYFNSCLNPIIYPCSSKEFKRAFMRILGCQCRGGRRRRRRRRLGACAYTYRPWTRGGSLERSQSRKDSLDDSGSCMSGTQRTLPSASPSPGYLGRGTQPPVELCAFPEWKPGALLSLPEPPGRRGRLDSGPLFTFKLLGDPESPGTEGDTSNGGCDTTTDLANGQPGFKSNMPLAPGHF
The experiment in a line: Affinity for alpha1 adrenoceptors: displacement of tritiated prazosin on rat cardiac membranes. Type of experiment: binding. Conditions: Ki from IC50 by Cheng and Prusoff, read-out: Inhibition constants at alpha-1-adrenoceptor (Ki). How it is done:
The affinity of compounds of the general formula I for alpha1 adrenoceptors was established using the method described by R. S. Williams, D. F. Dukes and […] in J. Cardiovasc. Pharmacol. 3, 522-531 (1981). In this method the competitive displacement of tritiated prazosin (2-(4-(2-furoyl)-1-piperazinyl)-4-amino-6,7-dimethoxy-quinazoline) on rat-cardiac membranes by the test substances is measured, and the IC50 (50% inhibition concentration) is determined as that concentration which brings about a 50% inhibition of the specific binding of tritiated prazosin to the alpha1 adrenoceptors in rat cardiac membranes.
The concentration-independent inhibitor constants K1 -alpha1 were determined from the IC50 values as stated by Y. Cheng and H. W.Prusoff in Biochem. Pharmacol. 22, 3099-3108 (1973).

A further experiment deals with T2, 5-HT-1A receptors (Rattus norvegicus, UniProt P19327).
T2 construct: 5-HT-1A receptors in rat brain membranes; from tissue; host or cells: rat brain membranes
T2 sequence (P19327 1-422): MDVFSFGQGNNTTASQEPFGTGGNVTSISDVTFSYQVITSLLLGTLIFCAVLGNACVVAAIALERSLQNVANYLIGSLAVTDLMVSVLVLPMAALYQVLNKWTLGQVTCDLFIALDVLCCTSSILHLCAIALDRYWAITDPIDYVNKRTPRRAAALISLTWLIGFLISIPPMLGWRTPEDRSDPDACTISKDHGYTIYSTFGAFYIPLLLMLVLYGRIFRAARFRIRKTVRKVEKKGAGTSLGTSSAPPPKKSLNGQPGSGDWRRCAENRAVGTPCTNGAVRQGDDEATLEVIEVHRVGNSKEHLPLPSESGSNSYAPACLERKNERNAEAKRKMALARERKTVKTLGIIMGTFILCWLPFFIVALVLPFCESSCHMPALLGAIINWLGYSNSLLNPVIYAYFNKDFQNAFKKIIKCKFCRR
As to the kind of experiment: Affinity for 5-HT-1A receptors: displacement of tritiated 8-OH-DPAT on rat brain membranes. It counts as binding. To be noted: Ki from IC50 by Cheng and Prusoff, read-out: Inhibition constants at 5-HT1A-receptor (Ki). The method, then: The affinity of compounds of the general formula I for 5-HT-1A receptors was determined by the method described by H. Gozlan, S. Elmestikawy, L. Pichat, J. Glowinski and M. Hamon in Nature 305, 140-142 (1983). In this method the competitive displacement of tritiated 8-OH-DPAT (8-hydroxy-(di-n-propylamino)tetralin) on rat brain membranes by the test substances is measured, and the IC50 (50% inhibition concentration) is determined as that concentration which brings about a 50% inhibition of the specific binding of tritiated 8-OH-DPAT to 5-HT-1A receptors in rat brain membranes.
The concentration-independent inhibitor constants K1 -alpha1 and K1 -5HT-1A were determined from the IC50 values as stated by Y. Cheng and H. W. Prusoff in Biochem. Pharmacol. 22, 3099-3108 (1973).

Results on 30 compounds are retold here after patent US5034391A, “Piperazinylalkyl-3(2H)-pyridazinones and the use thereof as agents lowering blood pressure” (CL Pharma Aktiengesellschaft, priority 1988, dated 1991).

`COc1ccc(C)cc1N1CCN(CCNc2cnn(C)c(=O)c2Cl)CC1` [2-Methyl-4-chloro-5-((2-(4-(2-methoxy-5-methylphenyl)piperazinyl-1)ethyl)amino)-3(2H)-pyridazinone]: the values for the Ki on alpha1 adrenoceptors and on 5-HT-1A receptors were 0.00698 µM and 0.51 µM, respectively.
Consider `COc1ccccc1N1CCN(CCNc2cnn(C(C)(C)C)c(=O)c2Cl)CC1` [2-t-Butyl-4-chloro-5-((2-(4-(2-methoxyphenyl)piperazinyl-1)ethyl)amino)-3(2H)-pyridazinone], for which the Ki at alpha1 adrenoceptors turned out to be 0.0128 µM; on 5-HT-1A receptors, 0.0394 µM.
Turning to `COc1ccc(C)cc1N1CCN(CCNc2c(Cl)cnn(C)c2=O)CC1` [2-Methyl-5-chloro-4-((2-(4-(2-methoxy-5-methylphenyl)piperazinyl-1)ethyl)amino)-3(2H)-pyridazinone], the inhibition constant (Ki) on alpha1 adrenoceptors was 0.00601 µM; at 5-HT-1A receptors it was 0.0851 µM.
Regarding `Cn1ncc(Cl)c(NCCN2CCN(c3ccccc3)CC2)c1=O` [2-Methyl-5-chloro-4-((2-(4-phenylpiperazinyl-1)ethyl)amino)-3(2H)-pyridazinone], the results for the Ki on alpha1 adrenoceptors and at 5-HT-1A receptors were 0.0867 µM and 0.519 µM, respectively.
With `CCOc1ccccc1N1CCN(CCNc2cnn(C)c(=O)c2Cl)CC1` [2-Methyl-4-chloro-5-((2-(4-(2-ethoxyphenyl)piperazinyl-1)ethyl)amino)-3(2H)-pyridazinone], the values for the Ki on alpha1 adrenoceptors and on 5-HT-1A receptors were 0.00759 µM and 0.0368 µM, respectively.
On to `COc1ccccc1N1CCN(CCCNc2cnn(C)c(=O)c2Cl)CC1` [2-Methyl-4-chloro-5-((3-(4-(2-methoxyphenyl)-1-piperazinyl)propyl)amino)-3(2H)-pyridazinone], for which the results for the Ki on alpha1 adrenoceptors and at 5-HT-1A receptors were 0.0322 µM and 0.0507 µM, respectively.
On the same counts, the results for `Cn1nccc(NCCN2CCN(c3ccccc3O)CC2)c1=O` [2-Methyl-4-((2-(4-(2-hydroxyphenyl)piperazinyl-1)ethyl)amino)-3(2H)-pyridazinone] are 0.0655 µM and 0.0365 µM.
For `Cn1ncc(NCCN2CCN(c3ccccc3F)CC2)c(Cl)c1=O` [2-Methyl-4-chloro-5-((2-(4-(2-fluorophenyl)piperazinyl-1)ethyl)amino)-3(2H)-pyridazinone], in that order: 0.0282 µM and 0.398 µM.
Take `COc1ccccc1N1CCN(CCNc2cnn(C)c(=O)c2)CC1` [2-Methyl-5-((2-(4-(2-methoxyphenyl)-1-piperazinyl)ethyl)amino)-3(2H)-pyridazinone]: the values for the Ki at alpha1 adrenoceptors and on 5-HT-1A receptors were 0.19 µM and 0.0436 µM, respectively.
On the same counts, the results for `Cn1ncc(NCCN2CCN(c3cccc(C(F)(F)F)c3)CC2)c(Cl)c1=O` [2-Methyl-4-chloro-5-((2-(4-(3-trifluoromethylphenyl)piperazinyl-1)ethyl)amino-3(2H)-pyridazinone] are 0.0942 µM and 0.0285 µM.
Regarding `Cn1ncc(NCCCN2CCN(c3ccccc3F)CC2)c(Cl)c1=O` [2-Methyl-4-chloro-5-((3-(4-(2-fluorophenyl)piperazinyl-1)propyl)amino)-3(2H)-pyridazinone], the Ki on alpha1 adrenoceptors turned out to be 0.0328 µM.
Regarding `O=c1[nH]nccc1NCCN1CCN(c2ccccc2O)CC1` [4((2-(4-(2-Hydroxyphenyl)piperazinyl-1)ethyl)amino)-3(2H)-pyridazinone], the Ki at alpha1 adrenoceptors was determined as 0.084 µM.
With `Cc1ccccc1N1CCN(CCNc2c(Cl)cnn(C)c2=O)CC1` [2-Methyl-5-chloro-4-((2-(4-(2-methylphenyl)piperazinyl-1)ethyl)amino)-3(2H)-pyridazinone], the Ki on alpha1 adrenoceptors was 0.00121 µM.
On to `Cn1ncc(NCCN2CCN(c3ccccc3OCc3ccccc3)CC2)c(Cl)c1=O` [2-Methyl-4-chloro-5-((2-(4-(2-benzyloxyphenyl)piperazinyl-1)ethyl)amino)-3(2H)-pyridazinone], for which the Ki on alpha1 adrenoceptors stood at 0.002 µM.
Turning to `CCOc1ccccc1N1CCN(CCCNc2ccn[nH]c2=O)CC1` [4-((3-(4-(2-Ethoxyphenyl)piperazinyl-1)propyl)amino)-3(2H)pyridazinone], at alpha1 adrenoceptors, the Ki worked out at 0.013 µM.
On the same count and under the same terms, to `COc1ccccc1N1CCN(CCNc2ccnn(CCN(C)C)c2=O)CC1` [2-(2-Dimethylaminoethyl)-4-((2-(4-(2-methoxyphenyl)piperazinyl-1)ethyl)amino)-3(2H)-pyridazinone] belongs 0.437 µM.
Same read-out and setting: next, `CCn1nc(Cl)cc(NCCCN2CCN(c3ccccc3OC)CC2)c1=O` [6-Chloro-2-ethyl-4-((3-(4-(2-methoxyphenyl)-1-piperazinyl)propyl)amino)-3(2H)-pyridazinone]: 0.018 µM; `CC(C)Oc1ccccc1N1CCN(CCNc2cc(Cl)n[nH]c2=O)CC1` [6-Chloro-4-((2-(4-(2-iso-propoxyphenyl)piperazinyl-1)ethyl)amino)-3(2H)-pyridazinone]: 0.01 µM; `Cn1nccc(NCCCN2CCN(c3ccccc3F)CC2)c1=O` [2-Methyl-4-((3-(4-(2-fluorophenyl)piperazinyl-1)propyl)amino)-3(2H)-pyridazinone]: 0.0302 µM.
`Cc1ccccc1N1CCN(CCCNc2c(Cl)cnn(C)c2=O)CC1` [2-Methyl-5-chloro-4-((3-(4-(2-methylphenyl)piperazinyl-1)piperazinyl-1)propyl)amino)-3(2H)-pyridazinone]: on alpha1 adrenoceptors, the Ki was 0.00445 µM.
Turning to `Cc1ccc(N2CCN(CCNc3cnn(C)c(=O)c3Cl)CC2)c(O)c1` [2-Methyl-4-chloro-5-((4-(2-hydroxy-4-methylphenyl)piperazinyl-1)ethyl)amino)-3(2H)-pyridazinone], the Ki on alpha1 adrenoceptors amounted to 0.0208 µM.
The same measure, in the same setting: to `COc1ccccc1N1CCN(CCNc2ccn[nH]c2=O)CC1` [4-((2-(4-(2-Methoxyphenyl)piperazinyl-1)ethyl)amino)-3(2H)-pyridazinone] belongs 0.0422 µM; to `COc1ccccc1N1CCN(CCCCNc2cnn(C)c(=O)c2Cl)CC1` [2-Methyl-4-chloro-5-((4-(4-(2-methoxyphenyl)-1-piperazinyl)butyl)amino)-3(2H)-pyridazinone], 0.00605 µM; to `COc1ccccc1N1CCN(CCNc2cnn(-c3ccccc3)c(=O)c2)CC1` [2-Phenyl-5-((2-(4-(2-methoxyphenyl)piperazinyl-1)ethyl)amino)-3(2H)-pyridazinone], 0.0616 µM.
Consider `Cc1ccc(N2CCN(CCCNc3ccnn(C)c3=O)CC2)c(O)c1` [2-Methyl-4-((3-(4-(2-hydroxy-4-methylphenyl)piperazinyl-1)propyl)amino)-3(2H)-pyridazinone], for which the Ki at alpha1 adrenoceptors was determined as 0.0209 µM.
`Cc1ccccc1N1CCN(CCCNc2cnn(C)c(=O)c2Cl)CC1` [2-Methyl-4-chloro-5-((3-(4-(2-methylphenyl)piperazinyl-1)propyl)amino)-3(2H)-pyridazinone]: the Ki on alpha1 adrenoceptors turned out to be 0.0314 µM.
On the same count and under the same terms, to `COc1ccccc1N1CCN(CCCNc2ccn[nH]c2=O)CC1` [4-((3-(4-(2-Methoxyphenyl)piperazinyl-1)propyl)amino) -3(2H)-pyridazinone] belongs 0.0261 µM; to `CCOc1cc(C)ccc1N1CCN(CCCNc2cnn(C)c(=O)c2)CC1` [1-Methyl-5-((3-(4-(2-ethoxy-4-methylphenyl)piperazinyl-1)propyl)amino)-3(2H)-pyridazinone], 0.0233 µM.
The same measure, in the same setting: next, `COc1ccccc1N1CCN(CCNc2cnn(CCN(C)C)c(=O)c2)CC1` [2-(2-Dimethylaminoethyl)-5-((2-(4-(2-methoxyphenyl)piperazinyl-1)ethyl)amino)-3(2H)-pyridazinone]: 0.229 µM; `COc1ccccc1N1CCN(CCCCNc2c(Cl)cnn(C)c2=O)CC1` [2-methyl-5-chloro-4-((4-(4-(2-methoxyphenyl)-1-piperazinyl)butyl)amino)-3(2H)-pyridazinone]: 0.00215 µM.
